This is an account of results in ChEMBL document CHEMBL4024779, “Novel Terminal Bipheny-Based Diapophytoene Desaturases (CrtN) Inhibitors as Anti-MRSA/VISR/LRSA Agents with Reduced hERG Activity” (J Med Chem, 2018).

The assay has as its target T1, 4,4'-diapophytoene desaturase (4,4'-diaponeurosporene-forming) (Staphylococcus aureus (strain Newman), UniProt O07855).
T1 sequence (O07855 whole entry): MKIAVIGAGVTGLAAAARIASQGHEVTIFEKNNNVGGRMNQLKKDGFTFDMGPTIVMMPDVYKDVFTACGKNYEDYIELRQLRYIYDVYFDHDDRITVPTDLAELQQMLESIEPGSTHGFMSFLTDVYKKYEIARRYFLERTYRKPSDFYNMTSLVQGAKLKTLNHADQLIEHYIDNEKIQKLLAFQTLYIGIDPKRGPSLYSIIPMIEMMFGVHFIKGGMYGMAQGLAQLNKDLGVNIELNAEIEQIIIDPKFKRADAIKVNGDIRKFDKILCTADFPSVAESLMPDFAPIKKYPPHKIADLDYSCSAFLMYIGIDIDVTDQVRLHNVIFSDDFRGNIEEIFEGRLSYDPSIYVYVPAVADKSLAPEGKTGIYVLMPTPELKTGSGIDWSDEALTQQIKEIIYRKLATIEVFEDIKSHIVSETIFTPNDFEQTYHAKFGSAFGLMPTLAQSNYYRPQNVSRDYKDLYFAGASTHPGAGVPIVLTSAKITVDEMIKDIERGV
Description: Inhibition of CrtN in Staphylococcus aureus Newman assessed as reduction in staphyloxanthin levels after 48 hrs by spectrophotometric method-based pigment inhibition assay. Details: species or system Staphylococcus aureus subsp. aureus str. Newman.
As a reminder, the IC50 is the concentration at which inhibition is half-maximal. Consider `CN(C/C=C/c1ccc(C(F)(F)F)cc1)Cc1cc2ccccc2[nH]1`, for which the 50% inhibitory concentration (IC50) was over 1 µM.

As for `CN(C/C=C/c1ccc(C(F)F)cc1)Cc1cccc2cc[nH]c12`, the IC50 was found to be 0.0435 µM.

Turning to `COc1ccc(/C=C/CN(C)Cc2cccc3cc[nH]c23)cc1F`, the IC50 is over 1 µM.

Take `CN(C/C=C/C1CCCC1)Cc1cccc2cc[nH]c12`: the IC50 was over 1 µM.

As for `CN(C/C=C/c1cccc([N+](=O)[O-])c1)Cc1coc2ccccc12`, the half-inhibitory concentration (IC50) is over 1 µM.

Take `CN(C/C=C/c1ccc(C#N)cc1)Cc1coc2ccccc12`: the IC50 came out at 0.0801 µM.

Take `COC(=O)c1ccc(/C=C/CN(C)Cc2coc3ccccc23)cc1`: the IC50 came to 0.0095 µM.

Take `CN(C/C=C/c1ccc(C(F)(F)F)cc1)Cc1ccc2cc[nH]c2c1`: the IC50 was 0.0643 µM.

As for `CN(C/C=C/c1ccc(C#N)cc1)Cc1cccc2cc[nH]c12`, the IC50 turned out to be 0.785 µM.

Regarding `CN(C/C=C/c1ccco1)Cc1cccc2cc[nH]c12`, the IC50 was over 1 µM.

Consider `COc1ccccc1/C=C/CN(C)Cc1coc2ccccc12`, for which the IC50 was over 1 µM.

In the case of `CN(C/C=C/c1ccc(C(F)(F)F)cc1)Cc1ccc2[nH]ccc2c1`, the IC50 is 0.0628 µM.

As for `CN(C/C=C/c1ccccc1[N+](=O)[O-])Cc1cccc2cc[nH]c12`, the IC50 was over 1 µM.

Regarding `COc1ccc(/C=C/CN(C)Cc2cccc3cc[nH]c23)c(F)c1`, the IC50 was 0.0731 µM.

In the case of `CN(C/C=C/C1CCCCC1)Cc1cccc2cc[nH]c12`, the IC50 is over 1 µM.

As for `CN(C/C=C/c1ccc(C(F)(F)F)cc1F)Cc1coc2ccccc12`, the IC50 was 0.0092 µM.

`C/C(=C\c1ccc(-c2ccccc2)cc1)CN(C)Cc1coc2ccccc12`: the concentration for half-maximal inhibition (IC50) was over 1 µM.

In the case of `Cc1ccc(/C=C/CN(C)Cc2cccc3cc[nH]c23)cc1`, the IC50 stood at 0.199 µM.

With `CN(C/C=C/c1ccc([N+](=O)[O-])cc1)Cc1coc2ccccc12`, the IC50 came out at 0.0095 µM.

Regarding `CN(C/C=C/c1ccc(C(F)(F)F)c(F)c1)Cc1coc2ccccc12`, the IC50 was over 1 µM.

Turning to `CN(C/C=C/c1ccc([N+](=O)[O-])cc1)Cc1cccc2cc[nH]c12`, the IC50 is over 1 µM.

With `CN(C/C=C/c1ccc(C(F)(F)F)cc1)Cc1cccc2cc[nH]c12`, the IC50 came out at 0.0502 µM.

As for `CN(C/C=C/c1ccc(C(C)(C)C)cc1)Cc1cccc2cc[nH]c12`, the half-maximal inhibitory concentration (IC50) came out at 0.7 µM.

As to `COc1ccc(/C=C/CN(C)Cc2coc3ccccc23)cc1F`, the IC50 was over 1 µM.

In the case of `CN(C/C=C/c1cccs1)Cc1cccc2cc[nH]c12`, the IC50 was over 1 µM.

Take `CCOc1ccc(/C=C/CN(C)Cc2cccc3cc[nH]c23)cc1`: the IC50 amounted to 0.0648 µM.

On to `Cc1ccccc1/C=C/CN(C)Cc1cccc2cc[nH]c12`, for which the IC50 is over 1 µM.

Regarding `CN(C/C=C/c1ccc(C(F)(F)F)cc1)Cc1csc2ccccc12`, the IC50 was over 1 µM.

In the case of `CN(C/C=C/c1ccc(C(F)(F)F)cc1)Cc1c[nH]c2ccccc12`, the concentration for half-maximal inhibition (IC50) is over 1 µM.

In the case of `CN(C/C=C/C1CCCCC1)Cc1coc2ccccc12`, the IC50 is over 1 µM.

In the case of `CN(C/C=C/c1ccc(Cl)cc1)Cc1cccc2cc[nH]c12`, the IC50 is 0.143 µM.

Consider `CN(C/C=C/c1ccccc1F)Cc1cccc2cc[nH]c12`, for which the IC50 is over 1 µM.

For `Cc1ccc(/C=C/CN(C)Cc2coc3ccccc23)cc1`, the IC50 came out at 0.0099 µM.

As for `CN(C/C=C/c1ccc(C(F)(F)F)c(F)c1)Cc1cccc2cc[nH]c12`, the IC50 is over 1 µM.

Take `COc1cccc(/C=C/CN(C)Cc2cccc3cc[nH]c23)c1`: the IC50 was over 1 µM.

For `CN(C/C=C/c1ccccc1C(F)(F)F)Cc1cccc2cc[nH]c12`, the IC50 is over 1 µM.

As to `CN(C/C=C/C1CCCC1)Cc1coc2ccccc12`, the IC50 turned out to be 0.397 µM.

With `CN(C/C=C/c1ccc(C(F)F)cc1)Cc1coc2ccccc12`, the IC50 was 0.0064 µM.

For `CCN(C/C=C/c1ccc(C(F)(F)F)cc1)CC1=COC2C=CC=CC12` (stereo not drawn), the IC50 was over 1 µM.

For `CN(C/C=C/c1ccc2ccccc2c1)Cc1cccc2cc[nH]c12`, the IC50 amounted to 0.132 µM.

Take `COc1ccc(/C=C/CN(C)Cc2cccc3cc[nH]c23)cc1`: the 50% inhibitory concentration (IC50) was found to be 0.167 µM.

As for `CN(C/C=C/c1ccc(C(F)(F)F)cc1)Cc1cc2ccccc2s1`, the IC50 was 0.102 µM.

Turning to `CN(C/C=C/c1ccc(F)cc1)Cc1coc2ccccc12`, the IC50 was 0.0741 µM.

Regarding `CN(CC#Cc1ccc(-c2ccccc2)cc1)Cc1cccc2cc[nH]c12`, the IC50 came to 0.102 µM.

Turning to `CN(C/C=C/c1ccccc1Cl)Cc1coc2ccccc12`, the IC50 came to 0.36 µM.

For `CN(CCCc1ccc(-c2ccccc2)cc1)Cc1coc2ccccc12`, the IC50 was over 1 µM.

For the compound `CN(C/C=C/c1ccccc1)Cc1cccc2cc[nH]c12`, the half-inhibitory concentration (IC50) is over 1 µM.

With `CN(CC#Cc1ccc(-c2ccccc2)cc1)Cc1coc2ccccc12`, the IC50 is over 1 µM.

Consider `CN(C/C=C/c1ccc(Br)cc1)Cc1cccc2cc[nH]c12`, for which the IC50 came to 0.0838 µM.

For `CN(CC/C=C/c1ccc(-c2ccccc2)cc1)Cc1coc2ccccc12`, the IC50 is over 1 µM.

On to `C/C(=C\c1ccc(-c2ccccc2)cc1)CN(C)Cc1cccc2cc[nH]c12`, for which the IC50 was over 1 µM.

Turning to `CCN(C/C=C/c1ccc(C(F)(F)F)cc1)Cc1cccc2cc[nH]c12`, the IC50 came to 0.118 µM.

On to `CN(C/C=C/c1ccc(C(F)(F)F)cc1)Cc1cccc2[nH]ccc12`, for which the IC50 was 0.0896 µM.

For `C/C=C/CN(C)Cc1coc2ccccc12`, the IC50 came out at 0.0913 µM.

Turning to `CN(C/C=C/c1cccc(Cl)c1)Cc1cccc2cc[nH]c12`, the IC50 is over 1 µM.

Regarding `CN(C/C=C/c1ccc(C(F)(F)F)cc1)Cc1coc2ccccc12`, the IC50 came out at 0.0098 µM.

With `C/C=C/CN(C)Cc1cccc2cc[nH]c12`, the IC50 was over 1 µM.

For the compound `CN(C/C=C/c1ccc(C(F)(F)F)cc1F)Cc1cccc2cc[nH]c12`, the IC50 stood at 0.0484 µM.

Regarding `CN(C/C=C/c1ccccc1F)Cc1coc2ccccc12`, the IC50 was over 1 µM.

As for `CC(C)N(C/C=C/c1ccc(C(F)(F)F)cc1)Cc1cccc2cc[nH]c12`, the IC50 is over 1 µM.

Consider `Cc1ccccc1/C=C/CN(C)Cc1coc2ccccc12`, for which the 50% inhibitory concentration (IC50) is 0.0864 µM.

Turning to `CN(C/C=C/c1cccc2ccccc12)Cc1cccc2cc[nH]c12`, the IC50 was over 1 µM.

For `CN(C/C=C/c1ccccc1C(F)(F)F)Cc1coc2ccccc12`, the IC50 was over 1 µM.

As for `CC(C)N(C/C=C/c1ccc(C(F)(F)F)cc1)CC1=COC2C=CC=CC12` (stereo not drawn), the IC50 was over 1 µM.

For the compound `FC(F)(F)c1ccc(/C=C/CNCC2=COC3C=CC=CC23)cc1` (stereo not drawn), the IC50 was over 1 µM.

For the compound `COc1cccc(/C=C/CN(C)Cc2coc3ccccc23)c1`, the IC50 is over 1 µM.

Regarding `COC(=O)c1ccc(/C=C/CN(C)Cc2cccc3cc[nH]c23)cc1`, the IC50 is 0.0878 µM.

In the case of `CN(C/C=C/c1cccc([N+](=O)[O-])c1)Cc1cccc2cc[nH]c12`, the IC50 was over 1 µM.

Take `CN(C/C=C/C=C/c1ccc(-c2ccccc2)cc1)Cc1coc2ccccc12`: the IC50 was over 1 µM.

As for `CN(C/C=C/c1ccc(C(C)(C)C)cc1)Cc1coc2ccccc12`, the IC50 was over 1 µM.

On to `CN(C/C=C/c1ccc(F)cc1)Cc1cccc2cc[nH]c12`, for which the IC50 is over 1 µM.

On to `CN(C/C=C/c1ccc(Cl)cc1Cl)Cc1cccc2cc[nH]c12`, for which the IC50 worked out at 0.28 µM.

As to `CN(C/C=C/c1cccc2ccccc12)Cc1coc2ccccc12`, the IC50 was over 1 µM.

As for `CN(C/C=C/c1cccc(F)c1)Cc1cccc2cc[nH]c12`, the IC50 was over 1 µM.

As for `CN(C/C=C/c1ccccc1[N+](=O)[O-])Cc1coc2ccccc12`, the IC50 was 0.0741 µM.

For `CCOc1ccc(/C=C/CN(C)Cc2coc3ccccc23)cc1`, the IC50 is over 1 µM.

As to `CN(C/C=C/c1ccc(C(F)(F)F)cc1)Cc1cc2ccccc2o1`, the IC50 was 0.0732 µM.

`CN(C/C=C/c1ccc2ccccc2c1)Cc1coc2ccccc12`: the IC50 was 0.0064 µM.

`CN(C/C=C/c1ccco1)Cc1coc2ccccc12`: the IC50 was over 1 µM.

Turning to `CN(C/C=C/c1ccccc1Cl)Cc1cccc2cc[nH]c12`, the IC50 was over 1 µM.

`COc1ccccc1/C=C/CN(C)Cc1cccc2cc[nH]c12`: the IC50 is over 1 µM.

On to `CN(C/C=C/c1ccccc1)Cc1coc2ccccc12`, for which the IC50 was over 1 µM.

`COc1ccc(/C=C/CN(C)Cc2coc3ccccc23)c(F)c1`: the half-inhibitory concentration (IC50) was over 1 µM.

In the case of `FC(F)(F)c1ccc(/C=C/CNCc2cccc3cc[nH]c23)cc1`, the IC50 was over 1 µM.

As to `Cc1cccc(/C=C/CN(C)Cc2cccc3cc[nH]c23)c1`, the half-maximal inhibitory concentration (IC50) is over 1 µM.

As to `CN(C/C=C/c1cccs1)Cc1coc2ccccc12`, the IC50 was over 1 µM.

With `CN(C/C=C/c1cccc(C(F)(F)F)c1)Cc1cccc2cc[nH]c12`, the IC50 was over 1 µM.

In the case of `CN(C/C=C/c1cccc(Cl)c1)Cc1coc2ccccc12`, the IC50 was over 1 µM.

Turning to `CN(C/C=C/c1cccc(C(F)(F)F)c1)Cc1coc2ccccc12`, the IC50 is over 1 µM.

Regarding `Cc1cccc(/C=C/CN(C)Cc2coc3ccccc23)c1`, the IC50 is over 1 µM.

For `CN(C/C=C/c1cccc(F)c1)Cc1coc2ccccc12`, the IC50 is over 1 µM.

Consider `CN(CCCc1ccc(-c2ccccc2)cc1)Cc1cccc2cc[nH]c12`, for which the IC50 was over 1 µM.

As to `CN(C/C=C/c1ccc(Cl)cc1Cl)Cc1coc2ccccc12`, the IC50 was found to be 0.0062 µM.
